{
  "source": "patent US4734406A",
  "about": "“3-pyridylmethylnaphthyl derivatives and composition containing them useful to inhibit thromboxane synthetase” (priority 1985, dated 1988)",
  "key": {"human platelets": {"tested_on": "human platelets", "assay": "Inhibition of the arachidonic acid-induced aggregation of human platelets in vitro", "type": "cell-based", "details": "Platelet, PRP, 10 min preincubation at 37° C., 2×10^-4 M arachidonic acid", "description": "1. Inhibition of the arachidonic acid-induced aggregation of human platelets in vitro.\nThe platelet aggregation is followed optically by measurement of the transmission of light in a Born aggregometer. The total volume of the test mix is 0.25 ml. The preincubation time at 37° C. with the test product is 10 min, and aggregation is then induced with 2×10^-4 M arachidonic acid. The test product is, as a rule, tested in five different concentrations in the PRP from three different donors. Dose-effect curves are drawn from the maximal aggregation amplitudes in each case, and the IC50 values are determined graphically. […] The measurements are carried out in the period 1-6 hours after blood sampling."}, "[1]": {"tested_on": "TXA2 release in platelet-rich human plasma", "assay": "Thrombin-induced TXA2 release in platelet-rich human plasma in vitro (TXB2 radioimmunoassay)", "type": "cell-based", "details": "0.5 h, relative TXB2 content, without test substance = 100%, 0.5 U thrombin + 7.2×10^-7 M arachidonic acid; for activity at 1 µM: 10^-6 mol/l test substance; for activity at 0.1 µM: 10^-7 mol/l test substance", "description": "2. Thrombin-induced TXA2 release in platelet-rich human plasma in vitro Blood is taken, by careful cannulation of the antecubital vein, from apparently healthy male and female volunteers, who have taken no medicaments in the preceding 10-day period, and is immediately stabilized with sodium citrate (ad. 0.38%). Platelet-rich plasma (PRP) is obtained in the supernatant by centrifugation at 140×g for 15 minutes, and the platelet content of this should be in the range 2.5-3.5×10^8 /ml. […] This is stopped in an ice bath and, after addition of tracer and TXB2 -specific antibodies (NEN, Dreieich), the TXB2 content is determined radioimmunologically (TXA2 is unstable under the experimental conditions and thus cannot be measured. The stable hydrolysis product TXB2 is measured in its place). The measured variable is the relative TXB2 content in the platelet incubations from two or three different donors with and without (=100%) the test substance."}, "Laser-induced thrombosis": {"tested_on": "Laser-induced thrombosis", "assay": "Inhibition of Laser-induced thrombosis", "type": "in vivo, Sprague-Dawley rats", "details": "10 mg/kg p.o., one hour before start; mesentery arterioles, rat", "description": "3. Inhibition of Laser-induced thrombosis\nThe investigations of the compounds according to the invention in the model of Laser-induced thrombosis are carried out on male or female Sprague-Dawley rats with a body weight of about 200 g. The animals to be investigated are premedicated s.c. with 0.1 mg of atropine sulfate in solution, and anesthetized i.p. with 100 mg of ketamine hydrochloride and 4 mg of xylazine per kg of body weight. Arterioles from the mesentry, with a diameter of 12-25 μm, are used for the investigation. During the measurement, the exposed mesentry is hyperfused with warmed physiological NaCl (37° C.) or is covered with degassed liquid paraffin. The beam of a 4 W argon laser (supplied by Spectra Physics, Darmstadt, FRG) is introduced coaxially into the inverted ray path of a microscope (ICM 405, LD-Epilan 40/0.60; supplied by Zeiss, Oberkochen, FRG) by means of a ray adaptation and adjustment system (supplied by BIG, Munich, FRG). […]\nThe number of shots needed to induce a defined thrombus was counted. The frequency of the laser flashes was one lesion every 2 minutes, all the thrombi with a minimum size of 1/4 of the vessel radius which were formed during the observation period being counted and measured. The results of the experiment were statistically analyzed using the x^2 test (L. Cavalli-Sforza, Biometrie, Stuttgart, 1969, pages 49 et seq.)."}},
  "note": "Structures can show the parent of a compound that is named as a salt.",
  "data": [
    {"smiles": "O=C(O)c1ccc2cc(C(O)c3cccnc3)ccc2c1", "note": "(stereo not shown) [Example 9, hydrochloride of 6-[1-hydroxy-1-(3-pyridyl)methyl]-2-naphthoic acid]", "values": [
      {"measurement": "IC50", "setting": "human platelets", "result": 1.7, "unit": "µM"},
      {"measurement": "activity at 1 µM", "setting": "[1]", "result": 21, "unit": "%"},
      {"measurement": "activity at 0.1 µM", "setting": "[1]", "result": 64, "unit": "%"}
    ]},
    {"smiles": "Cc1ccncc1C(O)c1ccc2cc(C(=O)O)ccc2c1.Cl", "note": "(stereo not shown) [Example 8, 6-[1-Hydroxy-1-(4-methyl-3-pyridyl)methyl]-2-naphthoic acid hydrochloride]", "values": [
      {"measurement": "IC50", "setting": "human platelets", "result": 6.3, "unit": "µM"},
      {"measurement": "activity at 1 µM", "setting": "[1]", "result": 13, "unit": "%"},
      {"measurement": "activity at 0.1 µM", "setting": "[1]", "result": 88, "unit": "%"},
      {"measurement": "Number of laser shots to form a thrombus (compared with control)", "setting": "Laser-induced thrombosis", "result": "+56%"}
    ]}
  ]
}
